Laboratory results published in patent US9271916B2, “Composition for reducing skin wrinkles including PDE5 inhibitor” (SK Chemicals Co., Ltd., priority 2011, dated 2016).
Structures can show the parent of a compound that is named as a salt.

Assays:
[1] = system: UVB-induced skin wrinkles; experiment: Wrinkle reduction in UVB-irradiated hairless mice; format: in vivo; settings: for Wrinkle reduction (skin photographs): 10 mM (about 5%), applied twice daily for 14 days after wrinkle induction
Description: An examination was made as to whether the PDE5 inhibitors can substantially reduce skin wrinkles of animal models. Hairless mice, aged 7 weeks, were irradiated with UVB (290-320 nm, 312 nm) to induce wrinkles. The compound or the control was applied to each mouse and its influence on the induced wrinkles was evaluated. More specifically, the mice were irradiated with 60 mJ/cm^2 (1 minimal […] dose (MED)) for 3 days weekly during the first and second week after wrinkling, 120 mJ/cm^2 (2 MED) for 3 days during the third week after wrinkling, 180 mJ/cm^2 (3 MED) for 3 days during the fourth week after wrinkling, 240 mJ/cm^2 (4 MED) for 3 days weekly during the fifth to eighth week after wrinkling, and 240 mJ/cm^2 (4 MED) for 5 days weekly during the ninth to fifteenth week after wrinkling. During the sixteenth and seventeenth week after wrinkling, about 0.5 ml of squalene-OOH, an oxidation product of squalene by UV irradiation, was applied once using a brush to induce deeper wrinkles. Thereafter, the compound or the control was applied to each mouse twice daily for 14 days.

[2] = system: type I procollagen production in normal human dermal fibroblasts (NHDF, cell line 7F3802); experiment: Procollagen type I production in normal human dermal fibroblasts; format: cell-based; settings: 48 hours, negative control 100.0±0.0%, p<0.01
Description: Effects by mirodenafil hydrochloride, test compound, on production of type I collagen was evaluated with normal human dermal fibroblasts.
Cell line 7F3802 was used as a normal human dermal fibroblast (hereinafter, ‘NHDF’). Frozen NHDF was thawed and subcultured, and passages 5 to 7 were used for this test.
L-Ascorbic acid (Sigma-Aldrich Co., U.S.A.) was used as a positive control because there are lots of comparative experimental data using l-ascorbic acid. L-Ascorbic acid has been reported to be effective in acceleration of collagen production when evaluating with fibroblasts. DMSO (Dimethyl sulfoxide) was used as a diluent.
(§1) 0.01 mL of aliquot was taken from 10 mM of mirodenafil hydrochloride stock solution, and 9.99 mL of DMSO was added to the aliquot to make 10,000 nM of sample. This sample was additionally diluted to 1,000 nM of concentration right before being used. 10,000 nM and 1,000 nM of solutions were diluted 100 times with serum-free medium to […], right before being applied.
For making a positive control, 20,000 μM (3.522 mg/mL) of 1-ascorbic acid was prepared by dissolving it with serum-free medium, and then the solution was diluted to 200 μM.
Two cell culture media were used in this experiment. Complete medium consisting of FBS (fetal bovine serum), Penicillin-Streptomycin (10,000 U/mL of penicillin and 10,000 ug of streptomycin) and DMEM/F12 (dulbecco's modified eagle's medium/F12) was used during subculture before test compound was applied, and then serum-free medium consisting of Penicillin-Streptomycin and DMEM (dulbecco's modified eagle's medium) was used.
Pre-treatment (cell culture and treatment of test compound) was performed as follows: After culturing in complete medium, 400 μl of NHDF was seeded into 48-well plates (1×10^5 cells/400 μl/well), and cultured at a condition of 37° C. and 5% CO2 incubator (MCO-20AIC, Sanyo, Japan) for 24 hours. After culture was completed, the remaining media were removed from each well. 500 μl of D-PBS (D-phosphate buffered saline) was added to each well to wash wells. […]

[3] = system: matrix metalloproteinase-1 (MMP-1) expression in normal human dermal fibroblasts; experiment: Inhibition of MMP-1 expression in normal human dermal fibroblasts; format: cell-based; settings: NHDF, negative control 189.7±10.9%, p<0.01
Description: Effects by mirodenafil hydrochloride, test compound, on inhibition of matrix metalloproteinase-1 (MMP-1) expression was evaluated with normal human dermal fibroblasts.
(−)Epigallocatechin gallate (EGCG) (Sigma-Aldrich Co., U.S.A.) was used as a positive control because there are lots of comparative experimental data using the EGCG. EGCG has been reported to be effective in inhibition of MMP-1 expression when evaluating with fibroblasts. DMSO (Dimethyl sulfoxide) was used as a diluent.
as §1
For making a positive control, 10,000 μM (4.584 mg/mL) of EGCG was prepared by dissolving it with serum-free medium, and then the solution was diluted to 10 μM (0.0046 mg/mL).
BCA protein assay kit (Lot No.: KK140637, Pierce Biotechnology Inc., USA) was used for total protein analysis, and matrix metalloproteinase-1 (MMP-1), human, biotrak ELISA system kit (Lot No.: 398061, GE Healthcare, UK) was used for MMP-1 analysis.
The contents of MMP-1 in wells to which negative control, test compound or positive control was added were divided by the content of total protein. The adjusted content of MMP-1 was used to calculate “Inhibition rate of MMP-1 expression” with the following equation. This test was repeated three times. Inhibition rate of MMP-1 expression (%)=A/B×100
A: MMP-1 amount of sample or positive control
B: MMP-1 amount of negative control
The other materials and methods which were not mentioned in detail were similar to those of Example 3.

Compound: CCCOc1ccc(S(=O)(=O)N2CCN(CCO)CC2)cc1-c1nc2c(CCC)cn(CC)c2c(=O)[nH]1 [mirodenafil free base, mirodenafil]
- Wrinkle reduction (skin photographs) [1]: Wrinkle reduction was observed

Compound: CCCOc1ccc(S(=O)(=O)N2CCN(CCO)CC2)cc1-c1nc2c(CCC)cn(CC)c2c(=O)[nH]1 [mirodenafil hydrochloride]
- Synthesis rate of procollagen type I ([2]; 10 nM): 149.7±12.4%
- Synthesis rate of procollagen type I ([2]; 100 nM): 189.8±6.4%
- MMP-1 expression (% of control) ([3]; 10 nM): 115.8±9.1%
- MMP-1 expression (% of control) ([3]; 100 nM): 97.9±8.5%

Compound: O=C1O[C@H]([C@@H](O)CO)C(O)=C1O [L-Ascorbic acid]
- Synthesis rate of procollagen type I ([2]; 35.2 μg/mL (200 μM)): 175.7±11.5%

Compound: CC1=C(/C=C/C(C)=C/C=C/C(C)=C/C(=O)O)C(C)(C)CCC1 [retinoic acid]
- Formation and peeling of cornified layers of the skin ([1]; 0.05%, topical, twice then once daily): Cornified layers were formed and continuously peeled

Compound: CCCOc1ccc(S(=O)(=O)N2CCN(CCO)CC2)cc1-c1nc2c(CCC)cn(CC)c2c(=O)[nH]1.Cl.Cl [mirodenafil 2HCl]
- Wrinkle reduction (skin photographs) [1]: Wrinkle reduction was observed

Compound: (−)Epigallocatechin gallate [EGCG]
- MMP-1 expression (% of control) ([3]; 0.0046 mg/mL (10 μM)): 102.3±18.7%
